Data on three sequences can be found in PMC2851732, “Peptide Inhibitors of Dengue-Virus Entry Target a Late-Stage Fusion Intermediate” (PLoS Pathogens, 2010).

As usually defined, the IC50 is the midpoint of a concentration-inhibition curve. A higher IC50 goes with weaker potency in that assay.

Ends that are not written are not given here.

This test deals with T1, DV2 sE(1–395) postfusion trimer (Dengue virus type 2, UniProt P12823).
T1 construct: The sE component (residues 1–395) of the ectodomain is in ribbon representation; purchased Hawai'i Biotech
The test can be described thus: Fluorescence polarization binding of FITC-tagged stem peptides to postfusion sE trimer. Further details: species or system dengue virus serotype 2. (Fluorescence polarisation rises when a labelled molecule tumbles more slowly, as on binding a larger partner.)
AILGDTAWDFGSLGGVFTSIGKA [DV2^413-435] came in with a half-maximal inhibitory concentration (IC50) of 2 µM. For “AILGDTAWDFGSLGGVFTSIGKALHQVF [DV2^413-440]” the value was 0.25 µM. For AWDFGSLGGVFTSIGKALHQVF [DV2^419-440] the value was 0.25 µM.
